Values of other authors in patent publication US8163752B2, “Tricyclic anilide heterocyclic CGRP receptor antagonists” (Merck, Sharp & Dohme Corp., priority 2007, dated 2012).
No end group written: not given here.

How the values were obtained:
middle meningeal artery = conditions: rats, electrical stimulation of the dura mater, prior administration (Williamson et al. 1997)
facial blood flow [1] = conditions: rat, trigeminal ganglion stimulation (Escott et al. 1995)
[2] = system: acute attacks of migraine; conditions: clinical trials (Olesen et al. 2004)
[3] = system: headache induced by CGRP infusion; conditions: control group (Petersen et al. 2005)
facial blood flow [4] = conditions: marmoset, electrical stimulation of the trigeminal ganglion (Doods et al. 2000)

Row | Compound | effect on increase of middle meningeal artery diameter (middle meningeal artery) | effect on increased facial blood flow (facial blood flow [1]) | efficacy in treating acute attacks of migraine [2] | prevention of headache induced by CGRP infusion [3] | effect on increase in facial blood flow (facial blood flow [4])
1 | CGRP(8-37): a peptide CGRP antagonist; fragment of CGRP that lacks seven N-terminal amino acid residues (VTHRLAGLLSRSGGVVKNNFVPTNVGSKAF; ends and bridges not checked; UniProt P06881 90-119, looked up, fragment) | blocked | inhibited |  |  | 
2 | NCCCC[C@H](NC(=O)[C@@H](Cc1cc(Br)c(O)c(Br)c1)NC(=O)N1CCC(N2Cc3ccccc3NC2=O)CC1)C(=O)N1CCN(c2ccncc2)CC1 [BIBN4096BS] |  |  | effective in treating acute attacks of migraine | able to prevent headache induced by CGRP infusion | could be blocked
